Laboratory results: patent US12508328B2, “Bio-activated reporters to visualize, in real time, specific gene therapy products” (Northwestern University, priority 2019, dated 2025)
Read-outs that look alike come from different tables or passages of the source.

Tests used:
[1] = target: T1, β-gal (Escherichia coli, UniProt P00722); details: for T1 signal in the presence of β-gal compared with cleaved agent 11: 24 h incubation
Method: MR images were acquired on a Bruker Pharmscan 7 T imaging spectrometer fitted with shielded gradient coils at 25° C. Image analysis was carried out using Paravision 5.0 p13 software (Bruker, Billerica, MA, USA) with monoexponential curve-fitting of image intensities of selected regions of interest (ROIs) for each axial slice. […] Exact Gd(III) concentration was verified by ICP-MS. Either 10 μL of enzyme stock solution (50% enzyme assay buffer, 50% glycerol, at 521 U/mL β-gal) or 10 μL of a 50% enzyme assay buffer/50% glycerol solution (used as a control) were added to a 190 μL aliquot of each complex. After this addition, the final concentration of each complex was 475 μM, with 26.1 U/mL of β-gal. The solutions were incubated at 37° C. for 24 hours, then aliquoted to 5, ¾″ flame-sealed Pasteur pipets. The bottom sections of the flame-sealed pipets were then scored with a glass scribe, broken into small capillaries, and imaged using a RF RES 300 1H 089/023 quadrature transmit receive 23 mm volume coil (Bruker BioSpin, Billerica, MA, USA). T1 relaxation times were measured using a rapid-acquisition rapid-echo RARE-VTR T1-map pulse sequence with the following imaging parameters: TE (11.0 ms), TR (500.0 ms), field of view (FOV)=25×25 mm2, matrix size (MTX)=256×256, number of axial slices=5, slice thickness (SI)=1.0 mm, and averages (NEX)=3, and total scan time was 2:36:57. T2 values were measured using a multislice multiecho (MSME) T2-map pulse sequence, with static TR (5000 ms) and 32 fitted echoes in 11 ms intervals (11, 22, . . . , 352 ms). Imaging parameters were as follows: FOV=25×25 mm2, MTX=256×256, number of axial slices=4, SI=1.0 mm, NEX=3, and a total scan time=48 min. T1 images and times can be found in FIG. 14 and T2 maps and times can be found in FIG. 18.

[2] = Relaxivity (1.4 T) in MOPS and MOPS/CO3^2−; assay type: physicochemical; details: for Δr1 relative to the cleaved control product 11: intramolecular series 10a-d, 37° C.
Method: While measurements of q indicate how well an agent can restrict water access to the GdIII center, the most important property for a bio-activated contrast agent is the change in relaxivity upon enzymatic cleavage (r1). To evaluate the signal change in the presence of CO32−, relaxivities of the intermolecular activated agents were measured in two different buffer conditions, the non-coordinating buffer MOPS and MOPS/CO32−.
T1 relaxation times were obtained for 5a-c (FIG. 13), and complexes 10a-d (FIG. 14), and 11 at 37° C. at 60 MHz (1.4 T) on a Bruker mq60 minispec spectrometer (Billerica, MA). Three 1 mM solutions of each complex were prepared in four different buffer conditions 1) 10 mm 3-(N-morpholino)propanesulfonic acid (MOPS), 100 mm NaCl, pH 7.4, 2) 10 mm MOPS, 24 mm NaHCO3, 100 mm NaCl, pH 7.4, 3) Dulbecco's Phosphate Buffer (DPBS) pH 7.3 Life Technologies, and 4) b-galactosidase enzyme assay buffer, 200 mm sodium phosphate, 100 mm bmercaptoethanol, 2 mm MgCl2, pH 7.3 (FIG. 15). Three sets of five serial dilutions (about 1 mm, 0.5 mm, 0.25 mm, 0.125 mm and 0.0625 mm) were prepared for each complex. T1 relaxation rates were measured using an inversion recovery pule sequence (t1_ir_mb) with a 10 ms first pulse separation, recycle delay and final pulse separation ≥5 T1. T1 relaxation rates were plotted as a function of GdIII concentrations as determined by ICP-MS, r1/r2 was obtained from linear fit of concentration vs. T1 as described in Equation (1).

[3] = Complex stability measured by relaxivity (T1); assay type: physicochemical; details: for change in T1 over time (stability): 1 mM in enzyme buffer pH 7.3, over 140 hours; for change in T1 over time (stability) in cell culture media: over 140 hours
[4] = Terbium(III) luminescence: determination of q; assay type: physicochemical; details: 10a′-d′, Horrock's equation; MOPS/CO3^2− buffer pH 7.4
Method: The q number in the absence and presence of CO32− was determined using TbIII analogues (5a′, 5b′, 5c′, and 11′). Given the similarities in chemistry amongst the lanthanides, TbIII luminescence is a convenient and established method for determining the coordination environment in corresponding GdIII chelates. The narrow […] emission at 543 nm and the relatively long lived 0.4 ms excited state lifetime for Tb(H2O)x facilitates accurate assessment of the inner-coordination sphere, differentiating between coordination of OH, OD, NH, and ND oscillators. 38 Luminescent decay curves were fit to the empirically derived Horrock's equation (Eq. 2). It was expected that the ortho position would have the lowest q in the presence of CO32−, creating a “dark” state with the lowest relaxivity.
The number of water molecules directly coordinated to the lanthanide center (q), was determined for each of the TbIII analogues 5a′-c′ (see Table 1), 10a′-d′ (Table 2), and 11′ in MilliQ water and MOPS/carbonate buffer (10 mm MOPS, 24 mm NaHCO3, pH 7.4).
The monoexponential fluorescence decay of an ≈1 mm solution of each complex was determined using a Hitachi F4500 fluorometer (Schaumburg, IL). An excitation wavelength of 308 nm and an emission wavelength of […] were used, and 25 scans were acquired and averaged for each solution. The averaged data was fit with a monoexponential decay function, and the time constant (t) for each solution was determined in triplicate. The fluorescence decay curves of the complexes were measured in both H2O and D2O, and in both buffer and deuterated buffer, obtained by lyophilizing and re-suspending the buffer in D2O three times (FIG. 17A-E). The q values were calculated using the empirically derived Horrock's equation for Tb(III) (Eq. 2): […]

[5] = target: T1, β-gal; details: dark to bright
From the text: The acetate arm is attached to an amine present in the linker between the macrocycle and the galactopyranose substrate.

[6] = system: β-gal enzyme (lacZ); details: for MR signal enhancement in lacZ-expressing mice, 1 h post injection: 9.4 T T1 weighted FLASH
Method: In vivo MR Imaging (9.4 T) Hemizygous transgenic mice (n=2) constitutively expressing the lacZ gene that encodes the β-gal enzyme (strain ROSA26-lacZ) were purchased from The Jackson Laboratory (Bar Harbor, ME). A non-transgenic littermate was used as a control. […] Mice were imaged with MRI at baseline, and 1, 4, and 24 hours post injection.
MRI was performed on a 9.4T Bruker Biospec MRI system with a 30 cm bore, a 12 cm gradient insert, and an Autopac automated sample positioning system (Bruker Biospin Inc, Billerica, MA). Animals were anesthetized in an induction chamber with 3% isoflurane and transferred to a dedicated imaging bed with isoflurane delivered via nosecone at 1-2%. Respiratory signals were monitored using an MR-compatible physiologic monitoring system (SA Instruments, Stonybrook, NY) and a warm water circulating system was used to maintain body temperature. Animals were placed in the prone position and a quadrature radiofrequency coil with inner diameter 40 mm was mounted on the bed. Mice were imaged using a FLASH gradient echo sequence using the following parameters: TR/TE/α=100 ms/2.2 ms/45°, MTX=192×192, FOV 4×4 cm, 9 slices of 1 mm thick, 0.3 mm slice gap, and 1 signal average.

[7] = cited from earlier work; for link to nephrogenic systemic fibrosis (NSF): clinical use
[8] = cited from earlier work
[9] = IP 200 microliters of 40 mM, 9.4 T
[10] = intravenous, two-compartment open-model

T1 sequence (P00722 2-1024): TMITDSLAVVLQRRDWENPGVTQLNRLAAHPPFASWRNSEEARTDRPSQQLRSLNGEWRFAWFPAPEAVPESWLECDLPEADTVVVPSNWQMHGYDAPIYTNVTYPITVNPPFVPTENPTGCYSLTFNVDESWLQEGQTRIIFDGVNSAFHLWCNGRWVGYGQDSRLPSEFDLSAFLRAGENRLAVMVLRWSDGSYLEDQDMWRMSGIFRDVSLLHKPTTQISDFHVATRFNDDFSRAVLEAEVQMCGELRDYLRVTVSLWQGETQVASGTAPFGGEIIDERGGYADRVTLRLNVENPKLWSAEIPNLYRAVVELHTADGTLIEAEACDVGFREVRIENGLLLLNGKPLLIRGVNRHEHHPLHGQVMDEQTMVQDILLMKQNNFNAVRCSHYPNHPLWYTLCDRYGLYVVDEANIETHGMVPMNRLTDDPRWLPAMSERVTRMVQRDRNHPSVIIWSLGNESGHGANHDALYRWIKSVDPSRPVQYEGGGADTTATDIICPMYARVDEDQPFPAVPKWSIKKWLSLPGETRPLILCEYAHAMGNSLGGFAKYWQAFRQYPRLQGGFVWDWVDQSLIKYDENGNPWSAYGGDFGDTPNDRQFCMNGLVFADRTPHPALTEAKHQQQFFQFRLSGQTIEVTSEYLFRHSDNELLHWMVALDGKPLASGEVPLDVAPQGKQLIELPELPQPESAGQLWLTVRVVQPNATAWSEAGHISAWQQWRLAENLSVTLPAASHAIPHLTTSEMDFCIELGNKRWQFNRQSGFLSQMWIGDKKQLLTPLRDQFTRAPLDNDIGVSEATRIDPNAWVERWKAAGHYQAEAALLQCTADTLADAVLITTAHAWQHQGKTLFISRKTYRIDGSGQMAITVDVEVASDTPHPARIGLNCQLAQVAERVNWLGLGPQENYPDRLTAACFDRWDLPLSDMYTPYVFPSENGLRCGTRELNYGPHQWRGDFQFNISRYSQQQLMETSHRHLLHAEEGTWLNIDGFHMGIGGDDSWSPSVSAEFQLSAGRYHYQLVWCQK

In the case of CCOC(=O)CCCNc1cc(COC(=O)NCCN2CCN(CC(=O)[O-])CCN(CC(=O)[O-])CCN(CC(=O)[O-])CC2)ccc1O[C@@H]1O[C@H](CO)[C@H](O)[C@H](O)[C@H]1O.[Gd+3] [10b, Gadolinium(III)-1-(4-(2-(1-(4,7,10-triscarboxymethyl-(1,4,7,10tetraazacyclododecyl)))ethylcarbamoyloxymethyl)-2-((4-ethoxy-4-oxobutyl)amino)phenyl)-β-D-galactopyranose], the “change in MR contrast +/−β-gal” value ([1]; 7 T T1 solution phantoms) was “greatest change in MR contrast”, the “T1 signal in the presence of β-gal compared with cleaved agent 11” value (shortened to “T1 signal … compared with cleaved agent 11”) ([1]; 7 T solution phantoms) was “does not appear to fully activate” and the T1 ([1]; 7 T solution phantoms, assay buffer, 24 h, +β-gal 26.1 U/mL) was 378 ms. For the same molecule, the “Δr1 in MOPS” value ([2]; 10a-d, MOPS) was “largest”, the “Δr1 relative to the cleaved control product 11” value [2] was “positive” and the “change in T1 over time (stability)” value [3] was “No significant change in T1”.

In the case of CCOC(=O)CNc1cc(COC(=O)NCCN2CCN(CC(=O)[O-])CCN(CC(=O)[O-])CCN(CC(=O)[O-])CC2)ccc1O[C@@H]1O[C@H](CO)[C@H](O)[C@H](O)[C@H]1O.[Gd+3] [10a, Gadolinium(III)-1-(4-(2-(1-(4,7,10-triscarboxymethyl-(1,4,7,10tetraazacyclododecyl)))ethylcarbamoyloxymethyl)-2-((2-ethoxy-2-oxoethyl)amino)phenyl)-β-D-galactopyranose], the “relaxivity within the intramolecular series” value ([2]; 10a-d) was “highest relativity of the series”, the “Δr1 relative to the cleaved control product 11” value [2] was “negative” and the “change in T1 over time (stability)” value [3] was “No significant change in T1”.

In the case of CCOC(=O)CCCCCNc1cc(COC(=O)NCCN2CCN(CC(=O)[O-])CCN(CC(=O)[O-])CCN(CC(=O)[O-])CC2)ccc1O[C@@H]1O[C@H](CO)[C@H](O)[C@H](O)[C@H]1O.[Gd+3] [10c, Gadolinium(III)-1-(4-(2-(1-(4,7,10-triscarboxymethyl-(1,4,7,10tetraazacyclododecyl)))ethylcarbamoyloxymethyl)-2-((6-ethoxy-6-oxohexyl)amino)phenyl)-β-D-galactopyranose], the “T1 signal … compared with cleaved agent 11” value ([1]; 7 T solution phantoms) was “approximately the same”, the change in relaxivity ([1]; at both 1.4 and 7 T) was “positive” and the “change in signal in the presence of CO3^2−” value ([2]; 10a-d, MOPS/CO3^2−) was “highest overall change in signal”. For the same molecule, the “Δr1 relative to the cleaved control product 11” value [2] was 20%, the “q (buffer)” value [4] was 0.1 and the “change in T1 over time (stability)” value [3] was “No significant change in T1”. The “change in T1 over time (stability) in cell culture media” value [3] was “No significant change in T1”, the “change in relaxivity when exposed to β-gal (post enzyme cleavage)” value [5] was 90% and the “MR signal enhancement in lacZ-expressing mice, 4 hrs post injection” value [6, 9] was “signal enhancement was present but at a reduced level”. For the same molecule, the “MR signal enhancement in non-transgenic control mice” value [6, 9] was “No signal enhancement was observed”, the “MR signal enhancement in lacZ-expressing mice, 1 h post injection” value (from here on “MR signal enhancement … 1 h post injection”) ([6]; IP 200 microliters of 40 mM) was “Global signal enhancement was observed” and the “MR signal enhancement … 1 h post injection” value ([6]; IP 200 microliters of 40 mM, listed as complex 3) was “Global signal enhancement was observed”. The “MR signal enhancement … 1 h post injection” value ([6]; IP 200 microliters of 40 mM, listed as β-galactosidase responsive agent) was “Signal enhancement was noted in the liver and kidneys”, the “MR signal enhancement in non-transgenic control mice” value ([6]; IP 200 microliters of 40 mM, 9.4 T, listed as complex 3) was “No signal enhancement was observed” and the “MR signal enhancement in non-transgenic control mice” value ([6]; IP 200 microliters of 40 mM, 9.4 T, listed as β-galactosidase responsive agent) was “minimal”. The “time for MR signal to return to baseline” value ([6]; LacZ mice, IP injection) was ≤ 24 h and the route of clearance ([6]; bladder very bright at 4 hour time point in one LacZ mouse) was “cleared renally”.

In the case of CNC(=O)CN(CCN(CCN(CC(=O)[O-])CC(=O)NC)CC(=O)[O-])CC(=O)[O-].[Gd+3] [Omniscan], the “link to nephrogenic systemic fibrosis (NSF)” value [7] is given as “associated with the onset of NSF”.

In the case of CCOC(=O)CCCCCCCNc1cc(COC(=O)NCCN2CCN(CC(=O)[O-])CCN(CC(=O)[O-])CCN(CC(=O)[O-])CC2)ccc1O[C@@H]1O[C@H](CO)[C@H](O)[C@H](O)[C@H]1O.[Gd+3] [10d, Gadolinium(III)-1-(4-(2-(1-(4,7,10-triscarboxymethyl-(1,4,7,10tetraazacyclododecyl)))ethylcarbamoyloxymethyl)-2-((8-ethoxy-8-oxooctyl)amino)phenyl)-β-D-galactopyranose], the “T1 signal … compared with cleaved agent 11” value ([1]; 7 T solution phantoms) was “approximately the same”, the “Δr1 relative to the cleaved control product 11” value [2] was “negative” and the “change in T1 over time (stability)” value [3] was “No significant change in T1”. The “change in T1 over time (stability) in cell culture media” value [3] was “No significant change in T1”.

For CNC[C@H](O)[C@@H](O)[C@H](O)[C@H](O)CO.CNC[C@H](O)[C@@H](O)[C@H](O)[C@H](O)CO.O=C([O-])CN(CCN(CC(=O)[O-])CC(=O)O)CCN(CC(=O)[O-])CC(=O)O.[Gd+3] [Magnevist, gadopentate dimeglumine], the “link to nephrogenic systemic fibrosis (NSF)” value [7] is given as “associated with the onset of NSF”, the “dose shown to enhance after intrathecal contrast delivery” value ([7]; intrathecal) is given as 0.004 mmol/kg and the “safe dose in preclinical safety studies” value ([7]; intravenous delivery) is given as 50 × the normal dose. The volume of distribution ([8]; equal to the extracellular space) was ~0.266 L/kg, the “binding to human serum protein” value ([8]; in vivo) was “has not been shown to bind” and the distribution half-life [8, 10] was 12 min. For the same molecule, the elimination half-life [8, 10] was 96 min, the “dose excreted in the urine by 24 hours” value ([8]; intravenous) was 91% and the “dose excreted in the urine within 6 hours” value ([8]; intravenous) was ~83%.
